Data reported in patent US9879043B1, “Synthesis of non-natural cofactor analogs of S-adenosyl-L-methionine using methionine adenosyltransferase” (University of Kentucky Research Foundation, priority 2013, dated 2018).
Like-named read-outs stand apart in the source and are kept apart here.

How the values were obtained:
Assay type in all cases: biochemical
[1] = target: Escherichia coli MAT (eMAT) (Escherichia coli, UniProt P0A817); assay: MAT assay, turnover of S/Se-Met analogs to S(Se)AM analogs (RP-HPLC end point); settings: 2 mM Met analog, 1 mM ATP, 5 μM MAT, pH 8, 4 h, 37° C., average of two assays
Protocol: Standard uniform assay conditions (2 mM Met analog, 1 mM ATP, 5 μM MAT, 25 mM Tris, 5 mM MgCl2, 50 mM KCl, pH 8, 4 h) were adopted to facilitate this broad assessment. For the thermophilic counterpart (mMAT), reactions were conducted at 65° C., while all other reactions were incubated at 37° C. Production of SAM analogs was determined by an RP-HPLC end point assay to afford complete analysis of the desired SAM analog and/or any corresponding degradation products known to directly derive from the desired SAM analog intermediate. Putative SAM analog and SAM-derived degradative product formation was subsequently confirmed via high-resolution mass spectrometry (HRMS) analysis for all positive reactions (see Table 2).
To monitor MAT reactions, analytical RP HPLC employed a Luna C18 column (5 μm, 4.6 mm×250 mm; Phenomenex, Torrance, Calif., USA) [gradient of 10% B to 40% B over 15 min, 40% B to 75% B over 5 min (A=10 mM NaH2PO4, 5 mM octane sulfonic acid, pH was adjusted to 3.5 using phosphoric acid; B=acetonitrile) flow rate=1 mL min^−1; A254].
In vitro MAT reactions were conducted in a volume of 50 μl with 2 mM S/Se-alkylated analog (compounds 2-30), 1 mM ATP and 5 μM purified MAT in 25 mM Tris buffer pH 8.0, 5 mM MgCl2, 50 mM KCl for 4 h. The sMAT and mMAT reactions were conducted at 65° C. while hMATs and eMAT were incubated at 37° C. Reactions were quenched by adding an equal volume of methanol followed by centrifugation (10,000×g for 15 min) to remove the precipitated protein and product formation for each reaction was subsequently analyzed by RP-HPLC using Method D (FIG. 15, first column). For each reaction, percent yield was based upon the integration of species at 254 nm and calculated by dividing the integrated area of product and/or decomposed product by the sum of integrated area of product and/or decomposed product and the remaining substrate. The assays were repeated twice under identical conditions, and Table 2 (and FIG. 5) represents an average value of two assays. The inclusion of adenine and 5′-R-thio-5′-adenosine in these calculations is based upon the established SAM and ATP chemical decomposition pathways which indicate adenine and 5′-R-thio-5′-adenosine to only derive from SAM (not ATP). All putative products were subsequently confirmed by high resolution electrospray ionization (ESI) mass spectra with positive (+) and/or negative (−) mode.

[2] = target: T1, Sulfolobus solfataricus MAT (sMAT) (Saccharolobus solfataricus, UniProt Q980S9); settings: 2 mM analog, 1 mM ATP, 5 μM sMAT, pH 8.0, 4 h at 65° C., average of two assays
T1 sequence (Q980S9 1-404): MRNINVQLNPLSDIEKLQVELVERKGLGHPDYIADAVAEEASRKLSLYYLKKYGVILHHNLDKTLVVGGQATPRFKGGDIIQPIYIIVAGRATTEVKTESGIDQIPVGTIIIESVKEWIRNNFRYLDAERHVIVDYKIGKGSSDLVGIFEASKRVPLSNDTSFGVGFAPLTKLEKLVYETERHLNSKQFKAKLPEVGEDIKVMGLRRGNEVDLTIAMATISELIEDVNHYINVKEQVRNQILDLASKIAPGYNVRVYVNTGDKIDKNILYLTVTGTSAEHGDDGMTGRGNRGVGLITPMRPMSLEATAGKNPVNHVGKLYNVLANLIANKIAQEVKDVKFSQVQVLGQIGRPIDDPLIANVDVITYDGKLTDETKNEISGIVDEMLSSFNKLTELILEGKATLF
Protocol: In-vitro sMAT assay: In vitro sMAT reactions were conducted in a volume of 50 μl with 2 mM S/Se-alkylated analog, 1 mM ATP and 5 μM purified sMAT in 25 mM Tris buffer pH 8.0, 5 mM MgCl2, 50 mM KCl for 4 h at 65° C. Reactions were quenched by adding an equal volume of methanol followed by centrifugation (10,000×g for 15 min) to remove the precipitated protein and product formation for each reaction was subsequently analyzed by reverse phase HPLC (RP-HPLC) using method described below. For each reaction, percent yield was based upon the integration of species at 254 nm and calculated by dividing the integrated area of product and/or decomposed product by the sum of integrated area of product and/or decomposed product and the remaining substrate. The assays were repeated twice under identical conditions, and Table 4 (and FIG. 17) represents an average value of two assays. The inclusion of adenine and 5′-R-thio-5′-adenosine in these calculations is based upon the established SAM and ATP chemical decomposition pathways which indicate adenine and 5′-R-thio-5′-adenosine to only derive from SAM (not ATP). All putative products were subsequently confirmed by high resolution electrospray ionization (ESI) mass spectra with positive (+) and/or negative (−) mode.
RP-HPLC method: Reactions were quenched by the addition of equal volume of methanol followed by centrifugation at 10,000 g for 15 min to remove precipitated protein before applying on an analytical Varian ProStar HPLC [Luna C18 column, 5 μm, 4.6 mm×250 mm; Phenomenex, Torrance, Calif., USA; gradient of 10% B to 40% B over 15 min, 40% B to 75% B over 5 min (A=10 mM NaH2PO4, 5 mM octane sulfonic acid, pH was adjusted to 3.5 using phosphoric acid; B=acetonitrile) flow rate=1 mL min^−1; A254].

[3] = target: T1, Sulfolobus solfataricus MAT (sMAT); assay: Kinetic measurements of sMAT reactions
Protocol: Kinetic Measurements of sMAT Reactions: Pseudo first-order kinetics was assessed in triplicate under saturating ATP (2.5 mM) and variable L-methionine/L-ethionine (0.007, 0.013, 0.033, 0.066, 0.133, 0.333, 0.66, 1.33 mM) and saturating L-methionine/L-ethionine (2.5 mM) and variable ATP (0.013, 0.033, 0.066, 0.133, 0.333, 0.66, 1.33 mM) concentrations. Reactions were performed in buffer containing 25 mM Tris pH 8.0, 40 mM KCl and 5 mM MgCl2, and 0.5 μg purified sMAT was added and incubated at 37° C. or 65° C. in a final volume of 20 μL. Reaction products were analyzed using RP-HPLC method above and product quantification was carried out using standard curve generated by commercial SAM. The kinetic curves were fit to the Michaelis-Menton equation using Prism software.

Sequence of Escherichia coli MAT (eMAT) (P0A817 whole entry): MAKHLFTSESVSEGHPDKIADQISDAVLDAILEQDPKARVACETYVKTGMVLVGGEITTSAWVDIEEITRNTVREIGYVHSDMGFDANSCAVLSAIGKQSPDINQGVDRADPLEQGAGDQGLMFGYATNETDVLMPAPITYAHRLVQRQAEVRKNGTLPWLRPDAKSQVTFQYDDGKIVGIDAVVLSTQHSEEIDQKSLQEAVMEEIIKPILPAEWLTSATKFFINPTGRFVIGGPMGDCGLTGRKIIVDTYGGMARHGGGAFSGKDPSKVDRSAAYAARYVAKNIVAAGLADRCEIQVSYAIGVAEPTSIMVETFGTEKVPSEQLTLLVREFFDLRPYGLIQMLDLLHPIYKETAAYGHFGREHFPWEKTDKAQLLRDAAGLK

SMILES: CCSCC[C@H](N)C(=O)O [compound 3, (2S)-2-amino-4-(ethylsulfanyl)butanoic acid]
- Percentage Turn-over eMAT [1]: 8%
- Percentage Turn-over eMAT ([1]; listed as ethionine): 10%
- Percentage Turn-Over (sMAT) [2]: 84%
- Percentage Turn-Over (sMAT) ([2]; listed as ethionine): ~100%
- kcat ([3]; 37° C. or 65° C., L-methionine versus L-ethionine): similar
- Km ([3]; compared to native substrate L-methionine): higher Km values
